Laboratory results reported in the NIST ThermoML archive (doi:10.1016/j.fluid.2007.06.007).
± gives the expanded uncertainty stated by the source.

Assay: excess molar enthalpy (molar enthalpy of mixing); xn = mol fraction of the nth substance listed
Details: 101 kPa, Liquid, Calvet calorimetry

CCCCn1cc[n+](C)c1.F[P-](F)(F)(F)(F)F [1-butyl-3-methylimidazolium hexafluorophosphate] + CCO
Details | excess molar enthalpy [kcal/mol]
288.15 K, x2 = 0.001144 | 0.00208 ± 0.000234
288.15 K, x2 = 0.002285 | 0.00415 ± 0.000287
288.15 K, x2 = 0.003423 | 0.00629 ± 0.000359
288.15 K, x2 = 0.004559 | 0.00822 ± 0.00043
288.15 K, x2 = 0.005692 | 0.0104 ± 0.000502
288.15 K, x2 = 0.006823 | 0.0126 ± 0.000574
288.15 K, x2 = 0.007951 | 0.0147 ± 0.000669
288.15 K, x2 = 0.009076 | 0.0168 ± 0.000741
298.15 K, x2 = 0.001112 | 0.00206 ± 0.000234
298.15 K, x2 = 0.002231 | 0.00395 ± 0.000287
298.15 K, x2 = 0.003346 | 0.00578 ± 0.000335
298.15 K, x2 = 0.004465 | 0.00775 ± 0.000406
298.15 K, x2 = 0.005584 | 0.00937 ± 0.000454
298.15 K, x2 = 0.006698 | 0.0112 ± 0.000526
298.15 K, x2 = 0.007812 | 0.0132 ± 0.000598
298.15 K, x2 = 0.008925 | 0.015 ± 0.000669
308.15 K, x2 = 0.00114 | 0.00243 ± 0.000239
308.15 K, x2 = 0.002261 | 0.00429 ± 0.000287
308.15 K, x2 = 0.00339 | 0.00632 ± 0.000359
308.15 K, x2 = 0.004524 | 0.00838 ± 0.00043
308.15 K, x2 = 0.005658 | 0.0101 ± 0.000478
308.15 K, x2 = 0.006787 | 0.0119 ± 0.00055
308.15 K, x2 = 0.007915 | 0.0139 ± 0.000621
308.15 K, x2 = 0.009044 | 0.0158 ± 0.000693
318.15 K, x2 = 0.001144 | 0.00253 ± 0.000239
318.15 K, x2 = 0.002294 | 0.00499 ± 0.000311
318.15 K, x2 = 0.00344 | 0.00687 ± 0.000359
318.15 K, x2 = 0.004591 | 0.00876 ± 0.00043
318.15 K, x2 = 0.005741 | 0.011 ± 0.000526
318.15 K, x2 = 0.006886 | 0.0133 ± 0.000598
318.15 K, x2 = 0.008031 | 0.0153 ± 0.000693
318.15 K, x2 = 0.009176 | 0.0174 ± 0.000765

CCO [ethanol] + O
298.15 K
Details | excess molar enthalpy [kcal/mol]
x1 = 0.000102 | -0.000249 ± 0.000186
x1 = 0.000206 | -0.000497 ± 0.000189
x1 = 0.000308 | -0.000746 ± 0.000191
x1 = 0.000412 | -0.000992 ± 0.000194
x1 = 0.000516 | -0.00124 ± 0.000194
x1 = 0.000619 | -0.00148 ± 0.000196
x1 = 0.000723 | -0.00173 ± 0.000198
x1 = 0.000827 | -0.00197 ± 0.000201
x1 = 0.000931 | -0.00222 ± 0.000206
x1 = 0.001034 | -0.00246 ± 0.00021
x1 = 0.001138 | -0.00271 ± 0.000217
x1 = 0.001241 | -0.00295 ± 0.000225
x1 = 0.001345 | -0.00319 ± 0.000229
x1 = 0.001448 | -0.00343 ± 0.000237
x1 = 0.001551 | -0.00367 ± 0.000239
x2 = 0.001021 | -0.000507 ± 0.000225
x2 = 0.00205 | -0.00101 ± 0.000227
x2 = 0.003074 | -0.00151 ± 0.000229
x2 = 0.004102 | -0.002 ± 0.000234
x2 = 0.00513 | -0.00248 ± 0.000239
x2 = 0.006155 | -0.00296 ± 0.000263
x2 = 0.007179 | -0.00343 ± 0.000263
x2 = 0.008203 | -0.0039 ± 0.000287
x2 = 0.009225 | -0.00437 ± 0.000287
x2 = 0.01024 | -0.00484 ± 0.000311
x2 = 0.01125 | -0.00529 ± 0.000311
x2 = 0.01226 | -0.00575 ± 0.000335
x2 = 0.01328 | -0.00619 ± 0.000335
x2 = 0.01428 | -0.00664 ± 0.000359
x2 = 0.01529 | -0.00708 ± 0.000382

CCCCCCC [heptane] + CCO
298.15 K
Details | excess molar enthalpy [kcal/mol]
x1 = 0.00013 | 0.0001 ± 0.00022
x1 = 0.000261 | 0.000201 ± 0.000222
x1 = 0.000392 | 0.000304 ± 0.000222
x1 = 0.000524 | 0.000402 ± 0.000222
x1 = 0.000655 | 0.00049 ± 0.000225
x1 = 0.000787 | 0.000588 ± 0.000225
x1 = 0.000919 | 0.000679 ± 0.000225
x1 = 0.001051 | 0.000767 ± 0.000225
x1 = 0.001183 | 0.000865 ± 0.000227
x1 = 0.001314 | 0.000954 ± 0.000227
x1 = 0.001445 | 0.00105 ± 0.000227
x1 = 0.001577 | 0.00114 ± 0.000227
x2 = 0.000794 | 0.00457 ± 0.000263
x2 = 0.001594 | 0.0088 ± 0.00043
x2 = 0.002391 | 0.0129 ± 0.000574
x2 = 0.003191 | 0.0168 ± 0.000741
x2 = 0.003992 | 0.0205 ± 0.000884
x2 = 0.00479 | 0.0239 ± 0.001
x2 = 0.005589 | 0.027 ± 0.00115
x2 = 0.006387 | 0.0299 ± 0.00127
x2 = 0.007185 | 0.0325 ± 0.00136
x2 = 0.007976 | 0.0349 ± 0.00146
x2 = 0.008768 | 0.0371 ± 0.00155
x2 = 0.009558 | 0.0391 ± 0.00163
